Common to all, as to assay: ITC
In general terms: ITC needs no label: the signal is the heat of the interaction.

The subject of assay [1] is AI-TES-R3R5HD-T (DNA, aptamer) GGACGACGGGGATTTGGGGTTTTCTATGTTTTTCGTCCTTTTTTTGCTGCGTTCTCCATTCTGG
In assay [2] the test system is CS-R5MP (DNA, aptamer) GGCTCTCGGGACGACGGGGATTTTTGGTGCACTATGTGGTTCGTTCGGGGTGGGCTGCGTTCTCCATTCTGG
The settings on record: one-site fit.

For assay [3], the system named is CS-R7MP-T (DNA, aptamer) CGGGACGACGGGGATTTTATTTGCACTATGTGGCTCGTTCGGGGTGTGCTGCGTTCTCCATTCTGG
The conditions noted are these: one-site fit.

Where [4] appears, read: one-site fit, aptamer identified from Figure 3e legend.

Like-named read-outs stand apart in the source and are kept apart here.

What is called KD is a measure of binding affinity in units of concentration. The low end stands for tighter binding, the high end for weaker binding.

Turning to `CC(=O)[C@H]1CC[C@H]2[C@@H]3CCC4=CC(=O)CC[C@]4(C)[C@H]3CC[C@]12C`, in assay [1] (setting [4]), the KD was 9.38 µM.

Turning to `C[C@]12CCC(=O)C=C1CC[C@@H]1[C@@H]2[C@@H](O)C[C@@]2(C)[C@H]1CC[C@]2(O)C(=O)CO`, the KD is listed as ~ 2.41 μM in assay [2] and 5.1 µM in assay [3].

In turn, `C[C@]12CC[C@@H]3c4ccc(O)cc4CC[C@H]3[C@@H]1CC[C@@H]2O` displayed a KD in assay [1] (setting [4]) of 6.22 µM.

As for `C[C@]12CC[C@H]3[C@@H](CCC4=CC(=O)CC[C@@]43C)[C@@H]1CC[C@@H]2O`, the KD in assay [1] was 0.313 µM.

The record behind these values is PMC12713628 (2025).
